Results published in PubChem BioAssay (NCI).
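Interpolation was linear, between the two tested concentrations surrounding the appropriate level; five concentrations were tested over 48 hours in 96-well plates. GI50: concentration for 50% inhibition of growth. The concentration for full growth arrest is given as TGI.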

Key:
Assay in all cases: DTP human tumour cell line panel, 48 h
SW-620 colon = tested on: SW-620 colon
HL-60(TB) leukemia = tested on: HL-60(TB) leukemia
SNB-19 CNS = tested on: SNB-19 CNS
OVCAR-4 ovarian = tested on: OVCAR-4 ovarian
OVCAR-8 ovarian = tested on: OVCAR-8 ovarian
SK-MEL-5 melanoma = tested on: SK-MEL-5 melanoma
OVCAR-5 ovarian = tested on: OVCAR-5 ovarian
HCT-15 colon = tested on: HCT-15 colon
UACC-62 melanoma = tested on: UACC-62 melanoma
SF-295 CNS = tested on: SF-295 CNS

In the case of `CN(C)C(=S)Nc1nnc(Nc2ccccc2)s1`, the TGI (SW-620 colon) is reported as > 100 µM, the TGI (HL-60(TB) leukemia) is reported as > 100 µM and the TGI (SNB-19 CNS) is reported as > 100 µM. For the same compound, the TGI (OVCAR-4 ovarian) was > 100 µM, the TGI (OVCAR-8 ovarian) was > 100 µM and the TGI (SK-MEL-5 melanoma) was > 100 µM. For the same compound, the TGI (OVCAR-5 ovarian) was > 100 µM and the TGI (HCT-15 colon) was > 100 µM.

In the case of `CC1(O)CCn2c(=O)c3cc4ccccc4cc3c(=O)n2C1O` (configuration not stated), the TGI (SW-620 colon) is reported as > 100 µM, the TGI (HL-60(TB) leukemia) is reported as > 100 µM and the TGI (SNB-19 CNS) is reported as > 100 µM. The TGI (UACC-62 melanoma) was > 100 µM, the TGI (SF-295 CNS) was > 100 µM and the TGI (OVCAR-8 ovarian) was > 100 µM. For the same compound, the TGI (SK-MEL-5 melanoma) was > 100 µM, the TGI (OVCAR-5 ovarian) was > 100 µM and the TGI (HCT-15 colon) was > 100 µM.

Compound `Cc1c(C(=O)/C=C/c2ccccc2[N+](=O)[O-])[n+](=O)c2ccccc2n1[O-]` has a TGI (SW-620 colon) of 17.5 µM, a TGI (HL-60(TB) leukemia) of 5.71 µM and a TGI (SNB-19 CNS) of 33.4 µM. For the same compound, the TGI (OVCAR-4 ovarian) was 22.8 µM, the TGI (SF-295 CNS) was 20.4 µM and the TGI (OVCAR-8 ovarian) was 14.3 µM. For the same compound, the TGI (SK-MEL-5 melanoma) was 24.4 µM, the TGI (OVCAR-5 ovarian) was 26.9 µM and the TGI (HCT-15 colon) was 12.6 µM.

With `CC(C)(C)c1ccc(OC2CCO2)cc1` (configuration not stated) the TGI (SW-620 colon) was 30.9 µM, the TGI (SNB-19 CNS) was > 100 µM and the TGI (UACC-62 melanoma) was > 100 µM. The TGI (OVCAR-4 ovarian) was > 100 µM, the TGI (SF-295 CNS) was > 100 µM and the TGI (OVCAR-8 ovarian) was > 100 µM. For the same compound, the TGI (SK-MEL-5 melanoma) was > 100 µM, the TGI (OVCAR-5 ovarian) was 98.7 µM and the TGI (HCT-15 colon) was 36.9 µM.

`CCOC(OC1=C(C#N)CCCC1)C(CC)[Se]c1ccccc1` (configuration not stated) was tested, and the TGI (HL-60(TB) leukemia) was 42.9 µM, the TGI (SNB-19 CNS) was > 100 µM and the TGI (UACC-62 melanoma) was 48 µM. It also gave a TGI (OVCAR-4 ovarian) of 43.2 µM, a TGI (SF-295 CNS) of 98.7 µM and a TGI (OVCAR-8 ovarian) of 34.7 µM. The TGI (SK-MEL-5 melanoma) was 33.5 µM, the TGI (OVCAR-5 ovarian) was 86.4 µM and the TGI (HCT-15 colon) was 33 µM.

Work on `N#CC(C#N)=c1c2nsnc2c(=C(C#N)C#N)c2nsnc12` yielded a TGI (SW-620 colon) of 3.05 µM, a TGI (HL-60(TB) leukemia) of 4.64 µM and a TGI (SNB-19 CNS) of 4.33 µM. The TGI (OVCAR-4 ovarian) was 3.83 µM, the TGI (SF-295 CNS) was 3.33 µM and the TGI (OVCAR-8 ovarian) was 3.12 µM. It also gave a TGI (OVCAR-5 ovarian) of 3.3 µM.

For `O=S1CSSC1`, the TGI (SW-620 colon) was 31.7 µM, the TGI (HL-60(TB) leukemia) was 61.5 µM and the TGI (SNB-19 CNS) was > 100 µM. It also gave a TGI (UACC-62 melanoma) of 25.8 µM, a TGI (OVCAR-4 ovarian) of 33.9 µM and a TGI (SF-295 CNS) of 65.1 µM. For the same compound, the TGI (OVCAR-8 ovarian) was 52 µM and the TGI (OVCAR-5 ovarian) was 36.7 µM.

In the case of `O=C(c1cccs1)C1NO[N+]([O-])=C1c1cccs1` (configuration not stated), the GI50 (SW-620 colon) is reported as 1.54 µM, the TGI (SW-620 colon) is reported as 3.01 µM and the GI50 (SNB-19 CNS) is reported as 29.9 µM. For the same compound, the TGI (SNB-19 CNS) was > 79.2 µM, the GI50 (UACC-62 melanoma) was 12.1 µM and the TGI (UACC-62 melanoma) was 24.8 µM. It also gave a GI50 (OVCAR-4 ovarian) of 2.13 µM, a TGI (OVCAR-4 ovarian) of 4.97 µM and a GI50 (SF-295 CNS) of 6.07 µM. For the same compound, the TGI (SF-295 CNS) was 12.4 µM, the GI50 (OVCAR-8 ovarian) was 2.9 µM and the TGI (OVCAR-8 ovarian) was > 21.9 µM. The GI50 (SK-MEL-5 melanoma) was 16.2 µM, the TGI (SK-MEL-5 melanoma) was 31 µM and the GI50 (OVCAR-5 ovarian) was 7.62 µM. The TGI (OVCAR-5 ovarian) was 20.4 µM, the GI50 (HCT-15 colon) was 3.43 µM and the TGI (HCT-15 colon) was 14.7 µM.

`Cc1c2ccncc2c(C)c2c1[nH]c1ccc(O)c(OCC(F)(F)F)c12` was tested, and the TGI (SW-620 colon) was 19.2 µM, the TGI (HL-60(TB) leukemia) was 11.6 µM and the TGI (SNB-19 CNS) was 9.17 µM. The TGI (UACC-62 melanoma) was 21.6 µM, the TGI (OVCAR-4 ovarian) was 14 µM and the TGI (SF-295 CNS) was 14.8 µM. It also gave a TGI (OVCAR-8 ovarian) of 26 µM, a TGI (SK-MEL-5 melanoma) of 7.5 µM and a TGI (OVCAR-5 ovarian) of 25.8 µM.

With `Cc1nc(-c2cccnc2)sc1C(=O)/C=C/c1cccc([N+](=O)[O-])c1` the TGI (SW-620 colon) was > 100 µM, the TGI (HL-60(TB) leukemia) was > 100 µM and the TGI (UACC-62 melanoma) was > 100 µM. For the same compound, the TGI (SF-295 CNS) was > 100 µM, the TGI (OVCAR-8 ovarian) was > 100 µM and the TGI (SK-MEL-5 melanoma) was > 100 µM. For the same compound, the TGI (OVCAR-5 ovarian) was > 100 µM and the TGI (HCT-15 colon) was > 100 µM.

`O=C(CC1(O)C(=O)Nc2c(Cl)ccc(Cl)c21)c1ccc(Cl)cc1Cl` (configuration not stated) was tested, and the TGI (SW-620 colon) was 56.6 µM, the TGI (SNB-19 CNS) was > 100 µM and the TGI (UACC-62 melanoma) was 34.9 µM. The TGI (OVCAR-4 ovarian) was 23.3 µM, the TGI (SF-295 CNS) was 41.6 µM and the TGI (OVCAR-8 ovarian) was 41.6 µM. For the same compound, the TGI (OVCAR-5 ovarian) was 35.6 µM and the TGI (HCT-15 colon) was > 100 µM.
